Assay results taken from PubChem BioAssay AID1259407 (Chemical Carcinogenesis Research Information System (CCRIS), 2018).
The source made the active and inactive calls. The rule behind the calls is not given here.

Test system: CCRIS mutagenicity, Ames/micronucleus/aberration tests
Assay: CCRIS mutagenicity studies
[1] = Test System: AMES SALMONELLA TYPHIMURIUM, Strain/Indicator: TA98, Metabolic Activation: NONE, Method: STANDARD PLATE
[2] = Test System: AMES SALMONELLA TYPHIMURIUM, Strain/Indicator: TA100, Metabolic Activation: NONE, Method: STANDARD PLATE
[3] = Test System: AMES SALMONELLA TYPHIMURIUM, Strain/Indicator: TA98, Metabolic Activation: NONE, Method: PREINCUBATION
[4] = Test System: AMES SALMONELLA TYPHIMURIUM, Strain/Indicator: TA100, Metabolic Activation: NONE, Method: PREINCUBATION
[5] = Test System: AMES SALMONELLA TYPHIMURIUM, Strain/Indicator: TA100, Metabolic Activation: RAT, LIVER, S-9, AROCLOR 1254, Method: STANDARD PLATE

## C[C@]12C=CC(=O)C=C1CC[C@@H]1[C@@H]2C(=O)C[C@@]2(C)[C@H]1CC[C@]2(O)C(=O)CO
Test System: AMES SALMONELLA TYPHIMURIUM, Strain/Indicator: TA98, Metabolic Activation: HAMSTER, LIVER, S-9, AROCLOR 1254 (10%), Method: STANDARD PLATE
  mutagenic call: inactive; negative
[1]
  mutagenic call: inactive; negative
Test System: AMES SALMONELLA TYPHIMURIUM, Strain/Indicator: TA98, Metabolic Activation: RAT, LIVER, S-9, AROCLOR 1254 (10%), Method: STANDARD PLATE
  mutagenic call: inactive; negative
Test System: AMES SALMONELLA TYPHIMURIUM, Strain/Indicator: TA100, Metabolic Activation: HAMSTER, LIVER, S-9, AROCLOR 1254 (10%), Method: STANDARD PLATE
  mutagenic call: inactive; negative
[2]
  mutagenic call: inactive; negative
Test System: AMES SALMONELLA TYPHIMURIUM, Strain/Indicator: TA100, Metabolic Activation: RAT, LIVER, S-9, AROCLOR 1254 (10%), Method: STANDARD PLATE
  mutagenic call: inactive; negative
Test System: AMES SALMONELLA TYPHIMURIUM, Strain/Indicator: TA1535, Metabolic Activation: HAMSTER, LIVER, S-9, AROCLOR 1254 (10%), Method: STANDARD PLATE
  mutagenic call: inactive; negative
Test System: AMES SALMONELLA TYPHIMURIUM, Strain/Indicator: TA1535, Metabolic Activation: NONE, Method: STANDARD PLATE
  mutagenic call: inactive; negative
Test System: AMES SALMONELLA TYPHIMURIUM, Strain/Indicator: TA1535, Metabolic Activation: RAT, LIVER, S-9, AROCLOR 1254 (10%), Method: STANDARD PLATE
  mutagenic call: inactive; negative
Test System: AMES SALMONELLA TYPHIMURIUM, Strain/Indicator: TA1537, Metabolic Activation: HAMSTER, LIVER, S-9, AROCLOR 1254 (10%), Method: STANDARD PLATE
  mutagenic call: inactive; negative
Test System: AMES SALMONELLA TYPHIMURIUM, Strain/Indicator: TA1537, Metabolic Activation: NONE, Method: STANDARD PLATE
  mutagenic call: inactive; negative
Test System: AMES SALMONELLA TYPHIMURIUM, Strain/Indicator: TA1537, Metabolic Activation: RAT, LIVER, S-9, AROCLOR 1254 (10%), Method: STANDARD PLATE
  mutagenic call: inactive; negative
Test System: AMES SALMONELLA TYPHIMURIUM, Strain/Indicator: TA1538, Metabolic Activation: HAMSTER, LIVER, S-9, AROCLOR 1254 (10%), Method: STANDARD PLATE
  mutagenic call: inactive; negative
Test System: AMES SALMONELLA TYPHIMURIUM, Strain/Indicator: TA1538, Metabolic Activation: NONE, Method: STANDARD PLATE
  mutagenic call: inactive; negative
Test System: AMES SALMONELLA TYPHIMURIUM, Strain/Indicator: TA1538, Metabolic Activation: RAT, LIVER, S-9, AROCLOR 1254 (10%), Method: STANDARD PLATE
  mutagenic call: inactive; negative
Test System: MOUSE LYMPHOMA, Strain/Indicator: L5178Y (TK+/TK-), Metabolic Activation: NONE, Method: SUSPENSION/PLATE
  mutagenic call: inactive; negative. reevaluation of results: negative
Test System: MOUSE LYMPHOMA, Strain/Indicator: L5178Y (TK+/TK-), Metabolic Activation: RAT, LIVER, S-9, AROCLOR 1254, Method: SUSPENSION/PLATE
  mutagenic call: inactive; negative. reevaluation of results: inconclusive

## c1ccc2c(c1)-c1cccc3c1c-2cc1ccccc13
Test System: AMES SALMONELLA TYPHIMURIUM, Strain/Indicator: TA98, Metabolic Activation: HAMSTER, LIVER, S-9, AROCLOR 1254 (10%), Method: PREINCUBATION
  mutagenic call: active; positive
Test System: AMES SALMONELLA TYPHIMURIUM, Strain/Indicator: TA98, Metabolic Activation: MOUSE, LIVER, S-9, AROCLOR 1254, Method: STANDARD PLATE
  mutagenic call: active; positive
[3]
  mutagenic call: inactive; negative
Test System: AMES SALMONELLA TYPHIMURIUM, Strain/Indicator: TA98, Metabolic Activation: RAT, LIVER, S-9, AROCLOR 1254 (10%), Method: PREINCUBATION
  mutagenic call: inactive; negative
Test System: AMES SALMONELLA TYPHIMURIUM, Strain/Indicator: TA100, Metabolic Activation: HAMSTER, LIVER, S-9, AROCLOR 1254 (10%), Method: PREINCUBATION
  mutagenic call: active; positive
[4]
  mutagenic call: inactive; negative
Test System: AMES SALMONELLA TYPHIMURIUM, Strain/Indicator: TA100, Metabolic Activation: RAT, LIVER, S-9, AROCLOR 1254
  mutagenic call: active; positive
Test System: AMES SALMONELLA TYPHIMURIUM, Strain/Indicator: TA100, Metabolic Activation: RAT, LIVER, S-9, AROCLOR 1254 (10%), Method: PREINCUBATION
  mutagenic call: active; positive
[5]
  mutagenic call: active; positive

## Nc1ccc(Sc2ccccc2)cc1
[1]
  mutagenic call: inactive; negative
Test System: AMES SALMONELLA TYPHIMURIUM, Strain/Indicator: TA98, Metabolic Activation: RAT, LIVER, S-9, AROCLOR 1254, Method: STANDARD PLATE
  mutagenic call: active; positive

## CC(=O)ON(OCc1ccc(C)cc1)C(=O)c1ccccc1
[2]
  mutagenic call: active; positive
Test System: AMES SALMONELLA TYPHIMURIUM, Strain/Indicator: TA100, Metabolic Activation: RAT, S-9, AROCLOR, Method: STANDARD PLATE
  mutagenic call: active; positive

## O=S(=O)(O)c1ccc2cc(Oc3ccc4cc(S(=O)(=O)O)ccc4c3)ccc2c1
[3]
  mutagenic call: inactive; negative
Test System: AMES SALMONELLA TYPHIMURIUM, Strain/Indicator: TA98, Metabolic Activation: RAT, LIVER, S-9, PHENOBARBITAL, Method: PREINCUBATION
  mutagenic call: inactive; negative
[4]
  mutagenic call: inactive; negative
Test System: AMES SALMONELLA TYPHIMURIUM, Strain/Indicator: TA100, Metabolic Activation: RAT, LIVER, S-9, PHENOBARBITAL, Method: PREINCUBATION
  mutagenic call: inactive; negative

## OC[C@H]1O[C@@H](n2cnc3c2ncn2ccnc32)[C@H](O)[C@@H]1O
[4]
  mutagenic call: inactive; negative

## Brc1ccc(CN2[C@@H]3c4ccccc4-c4ccccc4[C@@H]32)cc1 (stereo partly drawn)
[2]
  mutagenic call: active; positive

## CC(C)(C)OC(=O)N/N=C/c1c[n+]([O-])c2ccccc2[n+]1[O-]
[3]
  mutagenic call: active; positive
Test System: AMES SALMONELLA TYPHIMURIUM, Strain/Indicator: TA98, Metabolic Activation: S-9, Method: PREINCUBATION
  mutagenic call: active; positive
[4]
  mutagenic call: active; positive
Test System: AMES SALMONELLA TYPHIMURIUM, Strain/Indicator: TA100, Metabolic Activation: S-9, Method: PREINCUBATION
  mutagenic call: active; positive
Test System: E. COLI, Strain/Indicator: WP2 UVRA (PKM101), Metabolic Activation: NONE
  mutagenic call: active; positive
Test System: E. COLI, Strain/Indicator: WP2 UVRA (PKM101), Metabolic Activation: S-9
  mutagenic call: active; positive

## c1cc2c3c(c1)ccc1cccc(c13)C2
Test System: AMES SALMONELLA TYPHIMURIUM, Strain/Indicator: TA98, Metabolic Activation: HAMSTER, LIVER, S-9, AROCLOR 1254 (30%), Method: PREINCUBATION
  mutagenic call: active; positive
[3]
  mutagenic call: inactive; negative
Test System: AMES SALMONELLA TYPHIMURIUM, Strain/Indicator: TA98, Metabolic Activation: RAT, LIVER, S-9, AROCLOR 1254 (30%), Method: PREINCUBATION
  mutagenic call: inactive; negative
Test System: AMES SALMONELLA TYPHIMURIUM, Strain/Indicator: TA100, Metabolic Activation: HAMSTER, LIVER, S-9, AROCLOR 1254 (30%), Method: PREINCUBATION
  mutagenic call: active; positive
[4]
  mutagenic call: inactive; negative
Test System: AMES SALMONELLA TYPHIMURIUM, Strain/Indicator: TA100, Metabolic Activation: RAT, LIVER, S-9, AROCLOR 1254 (30%), Method: PREINCUBATION
  mutagenic call: active; positive
[5]
  mutagenic call: inactive; negative

## CO[C@]1(CC[C@@H](C)CO[C@@H]2O[C@H](CO)[C@@H](O)[C@H](O)[C@H]2O)O[C@H]2C[C@H]3[C@@H]4CC=C5C[C@@H](O[C@@H]6O[C@H](CO)[C@@H](O[C@@H]7O[C@@H](C)[C@H](O)[C@@H](O)[C@H]7O)[C@H](O)C6O[C@@H]6O[C@@H](C)[C@H](O)[C@@H](O)[C@H]6O)CC[C@]5(C)[C@H]4CC[C@]3(C)[C@H]2[C@@H]1C (stereo partly drawn)
[1]
  mutagenic call: inactive; negative
Test System: AMES SALMONELLA TYPHIMURIUM, Strain/Indicator: TA98, Metabolic Activation: RAT, LIVER, S-9, PHENOBARBITAL, Method: STANDARD PLATE
  mutagenic call: inactive; negative
[2]
  mutagenic call: inactive; negative
Test System: AMES SALMONELLA TYPHIMURIUM, Strain/Indicator: TA100, Metabolic Activation: RAT, LIVER, S-9, PHENOBARBITAL, Method: STANDARD PLATE
  mutagenic call: inactive; negative

## c1cc2c3c(c1)ccc1cccc(c13)C1OC21 (stereo not drawn)
Test System: CHINESE HAMSTER OVARY, Strain/Indicator: CHO (HGPRT)/6-THIOGUANINE, Metabolic Activation: NONE, Method: STANDARD PLATE
  mutagenic call: active; positive
Test System: CHINESE HAMSTER OVARY, Strain/Indicator: CHO (HGPRT)/6-THIOGUANINE, Metabolic Activation: RAT, LIVER, S-9, AROCLOR 1254, Method: STANDARD PLATE
  mutagenic call: inactive; negative
Test System: UDS RODENT HEPATOCYTES, Strain/Indicator: THY INCORP, Metabolic Activation: NONE, Method: AUTORADIOGRAPHY
  mutagenic call: active; positive

## Cc1cccc(NO)c1C
[4]
  mutagenic call: active; positive
Test System: AMES SALMONELLA TYPHIMURIUM, Strain/Indicator: TA100, Metabolic Activation: RAT, LIVER, S-9, PCB, Method: PREINCUBATION
  mutagenic call: active; positive
